Patent US20110213179A1, “METHOD OF EVALUATING EVENNESS OF SUPLATAST TOSILATE CRYSTAL, EVEN CRYSTAL, AND PROCESS FOR PRODUCING THE SAME” (TAIHO PHARMACEUTICAL CO., LTD., priority 2004, published 2011)

Assay: Stability test: crystals stored at 60° C. for three months, amount of decomposition products
Assay type: physicochemical
Protocol: Suplatast tosilate crystals of the present invention produced in Examples 3 and 4 (Lots A and B) and first-form suplatast tosilate crystals produced through the method described in Japanese Patent Publication (kokoku) No. 1991-70698 (Lots C, D, and E) (1.0 g for each Lot) were stored at 60° C. for three months for stability measurement. For reference, second-form suplatast tosilate crystals produced through the method described in JP-A-1995-252213 (Lot F) and third-form suplatast tosilate crystals produced through the method described in WO 02/083633 (Lot G) were subjected to stability measurement in a manner similar to that described above.
As is clear from Table 1, all the first-form crystals produced through the conventionally known production method undergo decomposition, but the crystals produced through the production method of the present invention undergo virtually no decomposition and are stable.

| SMILES | Amount (%) of suplatast tosilate decomposition products produced at 60° C.: Decomposition product 2 (1 month) | Amount (%) of suplatast tosilate decomposition products produced at 60° C.: Decomposition product 3 (1 month) | Amount (%) of suplatast tosilate decomposition products produced at 60° C.: Decomposition product 1 (1 month, p-toluenesulfonate) | Amount (%) of suplatast tosilate decomposition products produced at 60° C.: Total amount of decomposition products (1 month, p-toluenesulfonate) | Amount (%) of suplatast tosilate decomposition products produced at 60° C.: Decomposition product 1 (2 months, p-toluenesulfonate) | Amount (%) of suplatast tosilate decomposition products produced at 60° C.: Decomposition product 2 (2 months, p-toluenesulfonate) | Amount (%) of suplatast tosilate decomposition products produced at 60° C.: Decomposition product 3 (2 months, p-toluenesulfonate) | Amount (%) of suplatast tosilate decomposition products produced at 60° C.: Total amount of decomposition products (2 months, p-toluenesulfonate) | Amount (%) of suplatast tosilate decomposition products produced at 60° C.: Decomposition product 1 (3 months, p-toluenesulfonate) | Amount (%) of suplatast tosilate decomposition products produced at 60° C.: Decomposition product 2 (3 months, p-toluenesulfonate) | Amount (%) of suplatast tosilate decomposition products produced at 60° C.: Decomposition product 3 (3 months, p-toluenesulfonate) | Amount (%) of suplatast tosilate decomposition products produced at 60° C.: Total amount of decomposition products (3 months, p-toluenesulfonate) |
| --- | --- | --- | --- | --- | --- | --- | --- | --- | --- | --- | --- | --- |
| CCOCC(O)COc1ccc(NC(=O)CC[S+](C)C)cc1.Cc1ccc(S(=O)(=O)[O-])cc1 (racemic) [First-form crystals Lot C, (±)-[2-[4-(3-ethoxy-2-hydroxypropoxy)phenylcarbamoyl]ethyl]dimethylsulfonium p-toluenesulfonate] | 0.0% | 0.0% | 0.1% | 0.1% | 0.6% | 0.3% | 0.2% | 1.1% | 1.3% | 0.4% | 0.4% | 2.1% |
| CCOCC(O)COc1ccc(NC(=O)CC[S+](C)C)cc1.Cc1ccc(S(=O)(=O)[O-])cc1 (racemic) [Second-form crystals (ref.), (±)-[2-[4-(3-ethoxy-2-hydroxypropoxy)phenylcarbamoyl]ethyl]dimethylsulfonium p-toluenesulfonate] | 0.0% | 0.0% | 0.0% | 0.0% | 0.0% | 0.0% | 0.0% | 0.0% | 0.1% | 0.1% | 0.0% | 0.2% |
| CCOCC(O)COc1ccc(NC(=O)CC[S+](C)C)cc1.Cc1ccc(S(=O)(=O)[O-])cc1 (racemic) [First-form crystals Lot D, (±)-[2-[4-(3-ethoxy-2-hydroxypropoxy)phenylcarbamoyl]ethyl]dimethylsulfonium p-toluenesulfonate] | 0.0% | 0.0% | 0.0% | 0.0% | 0.4% | 0.2% | 0.1% | 0.7% | 0.9% | 0.3% | 0.3% | 1.5% |
| CCOCC(O)COc1ccc(NC(=O)CC[S+](C)C)cc1.Cc1ccc(S(=O)(=O)[O-])cc1 (racemic) [Invention crystals (Ex. 4), (±)-[2-[4-(3-ethoxy-2-hydroxypropoxy)phenylcarbamoyl]ethyl]dimethylsulfonium p-toluenesulfonate] | 0.0% | 0.0% | 0.0% | 0.0% | 0.0% | 0.0% | 0.0% | 0.0% | 0.0% | 0.0% | 0.0% | 0.0% |
| CCOCC(O)COc1ccc(NC(=O)CC[S+](C)C)cc1.Cc1ccc(S(=O)(=O)[O-])cc1 (racemic) [Third-form crystals (ref.), (±)-[2-[4-(3-ethoxy-2-hydroxypropoxy)phenylcarbamoyl]ethyl]dimethylsulfonium p-toluenesulfonate] | 0.0% | 0.0% | 0.0% | 0.0% | 0.0% | 0.0% | 0.0% | 0.0% | 0.0% | 0.0% | 0.0% | 0.0% |
| CCOCC(O)COc1ccc(NC(=O)CC[S+](C)C)cc1.Cc1ccc(S(=O)(=O)[O-])cc1 (racemic) [First-form crystals Lot E, (±)-[2-[4-(3-ethoxy-2-hydroxypropoxy)phenylcarbamoyl]ethyl]dimethylsulfonium p-toluenesulfonate] | 0.0% | 0.0% | 0.0% | 0.0% | 0.3% | 0.1% | 0.1% | 0.5% | 0.9% | 0.2% | 0.3% | 1.4% |
| CCOCC(O)COc1ccc(NC(=O)CC[S+](C)C)cc1.Cc1ccc(S(=O)(=O)[O-])cc1 (racemic) [Invention crystals (Ex. 3), (±)-[2-[4-(3-ethoxy-2-hydroxypropoxy)phenylcarbamoyl]ethyl]dimethylsulfonium p-toluenesulfonate] | 0.0% | 0.0% | 0.0% | 0.0% | 0.0% | 0.0% | 0.0% | 0.0% | 0.0% | 0.0% | 0.0% | 0.0% |
